Data reported in PMC6274455, “Isolation of α-Amylase Inhibitors from Kadsura longipedunculata Using a High-Speed Counter-Current Chromatography Target Guided by Centrifugal Ultrafiltration with LC-MS” (Molecules, 2016).
pIC50: −log10 of the molar value. Read-outs that look alike come from different tables or passages of the source.

Molecular target: T1, α-amylase (Sus scrofa, UniProt P00690)
T1 construct: gene AMY2
T1 sequence (P00690 16-511): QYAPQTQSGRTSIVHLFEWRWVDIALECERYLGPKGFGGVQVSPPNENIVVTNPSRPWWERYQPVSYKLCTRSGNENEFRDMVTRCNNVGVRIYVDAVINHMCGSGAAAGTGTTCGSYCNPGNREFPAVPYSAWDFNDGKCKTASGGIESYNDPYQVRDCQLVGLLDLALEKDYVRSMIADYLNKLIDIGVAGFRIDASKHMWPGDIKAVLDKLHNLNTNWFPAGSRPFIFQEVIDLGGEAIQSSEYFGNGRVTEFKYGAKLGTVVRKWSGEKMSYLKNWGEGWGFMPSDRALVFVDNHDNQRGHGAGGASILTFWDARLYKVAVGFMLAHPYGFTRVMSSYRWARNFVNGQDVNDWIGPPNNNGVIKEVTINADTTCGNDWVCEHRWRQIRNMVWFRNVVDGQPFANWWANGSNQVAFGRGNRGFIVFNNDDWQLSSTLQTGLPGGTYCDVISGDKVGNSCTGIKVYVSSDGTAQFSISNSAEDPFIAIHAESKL
Assay: α-amylase inhibition assay of isolated compound; also captured by centrifugal ultrafiltration LC-MS with active but not denatured enzyme
Format: biochemical

Structure (SMILES) | pIC50 (read-out: IC50) | pIC50
O=C(O)c1ccc(O)c(O)c1 [compound 2, protocatechuic acid] | 4.90 | –
C[C@@H]1O[C@@H](Oc2c(-c3ccc(O)c(O)c3)oc3cc(O)cc(O)c3c2=O)[C@H](O)[C@H](O)[C@H]1O [compound 1, quercetin-3-O-rhamnoside] | – | 4.54
